Measured values taken from ChEMBL document CHEMBL5500324, “The potential of marine-derived piperazine alkaloids: Sources, structures and bioactivities” (Eur J Med Chem, 2024).
Values after ≈ are worked out from the molar mass of the structure shown. One block for each compound: values may come before it.

Assays:
Type in all cases: functional, cell-based
A-375 = test: Cytotoxicity against human A-375 cells assessed as reduction in cell viability by CCK-8 assay
HL-60 [1] = test: Cytotoxicity against human HL-60 cells assessed as reduction in cell viability measured for 24 hrs by MTT assay; settings: HL-60, 24 h
HL-60 [2] = test: Cytotoxicity against human HL-60 cells assessed as reduction in cell viability
HGC-27 = test: Cytotoxicity against human HGC-27 cells assessed as reduction in cell viability
PANC-1 = test: Cytotoxicity against human PANC-1 cells assessed as reduction in cell viability
MKN-1 = test: Antiproliferative activity against human MKN-1 cells assessed as reduction in cell viability measured for 48 hrs by CCK-8 assay; settings: MKN-1, 48 h
HCT-116 = test: Cytotoxicity against human HCT-116 cells assessed as inhibition of cell growth incubated for 72 hrs by SRB assay; settings: HCT-116, 72 h
HepG2 = test: Cytotoxicity against human HepG2 cells assessed as reduction in cell growth incubated for 48 hrs by CCK-8 assay; settings: HepG2, 48 h
MDA-MB-231 [3] = test: Cytotoxicity against human MDA-MB-231 cells assessed as reduction in cell growth incubated for 48 hrs by CCK-8 assay; settings: MDA-MB-231, 48 h
HeLa = test: Cytotoxicity against human HeLa cells assessed as reduction in cell growth measured after 72 hrs by MTT assay
A549 [4] = test: Antiproliferative activity against human A549 cells assessed as reduction in cell viability incubated for 72 hrs by SRB assay; settings: A549, 72 h
HT-29 [5] = test: Antiproliferative activity against human HT-29 cells assessed as reduction in cell viability incubated for 72 hrs by SRB assay; settings: HT-29, 72 h
MDA-MB-231 [6] = test: Antiproliferative activity against human MDA-MB-231 cells assessed as reduction in cell viability incubated for 72 hrs by SRB assay; settings: MDA-MB-231, 72 h
A549 [7] = test: Cytotoxicity against human A549 cells assessed as inhibition of cell growth incubated for 48 hrs by MTT assay; settings: A549, 48 h
P388 = test: Cytotoxicity against mouse P388 cells assessed as inhibition of cell growth
A549 [8] = test: Cytotoxicity against human A549 cells assessed as inhibition of cell growth
HT-29 [9] = test: Cytotoxicity against human HT-29 cells assessed as inhibition of cell growth
SK-MEL-28 = test: Cytotoxicity against human SK-MEL-28 cells assessed as inhibition of cell growth
A549 [10] = test: Cytotoxicity against human A549 cells assessed as reduction in cell viability measured after 48 hrs by MTT assay; settings: A549, 48 h

Structure (SMILES): CC(C)C[C@@H]1NC(=O)[C@@H]2C[C@@]3([C@@]45C[C@H]6C(=O)N[C@@H](Cc7ccccc7)C(=O)N6[C@@H]4Nc4ccccc45)c4ccccc4N[C@H]3N2C1=O
- IC50 (A-375): 10.3 µM

Structure (SMILES): CC1(C)C=Cc2c(ccc3c2NC(=O)C(C)(C)/C=C\N2C(=O)C4=CCCN4C(=O)[C@@H]2CC3=O)O1
- IC50 (HL-60 [1]): 8.7 µM

Structure (SMILES): COc1ccc2c(c1)N[C@@]1(C2=O)[C@H](C=C(C)C)N2C(=O)[C@]3(O)CCCN3C(=O)[C@]2(O)[C@H]1O
- IC50 (HL-60 [2]): 6 µM

Structure (SMILES): C=CC(C)(C)c1[nH]c2ccccc2c1/C=C1\NC(=O)[C@@H]2CCCN2C1=O
- IC50 (HGC-27): 4.54 µM

Structure (SMILES): COc1ccc([C@H]2SS[C@@]34C[C@]5(O)[C@H](Cl)C=C[C@@H](O)[C@@H]5ON3C(=O)[C@@H]2NC4=O)c(O)c1OC
- IC50 (PANC-1): 0.02 µM

- IC50 (MKN-1): 4.6 µM
Structure (SMILES): C=CC(C)(C)c1[nH]c2cc(CC=C(C)C)ccc2c1/C=C1\NC(=O)[C@H](C)NC1=O

Structure (SMILES): O=C1N[C@@](O)(Cc2ccccc2)C(=O)N2CCC[C@@H]12
- IC50 (HCT-116): 23 µM

Structure (SMILES): COc1ccc2c(c1)NC(=O)[C@]21[C@H](C=C(C)C)N2C(=O)[C@@H]3CCCN3C(=O)[C@]2(O)[C@H]1O
- IC50 (HepG2): 14.1 µM
- IC50 (MDA-MB-231 [3]): 35.5 µM

Structure (SMILES): CC(C)[C@H]1C(=O)N2[C@@H]3N4c5ccccc5[C@]3(C[C@@H]3[C@@]5(C)CCCC(C)(C)[C@@H]5CC[C@]34C)C[C@H]2C(=O)N1C
- IC50 (HeLa): 16.7 µM

- IC50 (A549 [4]): 4.7 µM
- IC50 (HT-29 [5]): 4.8 µM
- IC50 (MDA-MB-231 [6]): 7.5 µM
Structure (SMILES): CN1C[C@@H](c2c[nH]c3cc(Br)ccc23)N(C)C[C@@H]1c1c[nH]c2ccccc12
- IC50 (A549 [7]): 4.1 µM

Structure (SMILES): COc1c(C)cc2c(c1O)[C@H]1[C@@H]3[C@@H]4SCC(=O)C(=O)OC[C@@H](c5c6c(c(C)c(OC(C)=O)c54)OCO6)N3[C@@H](O)[C@@H](C2)N1C
- IC50 (P388): 10 µM
- IC50 (A549 [8]): 0.02 µg/mL (≈ 0.0326 µM)
- IC50 (HT-29 [9]): 0.025 µg/mL (≈ 0.0408 µM)
- IC50 (SK-MEL-28): 0.025 µg/mL (≈ 0.0408 µM)
- IC50 (A549 [10]): 0.01 µg/mL (≈ 0.0163 µM)
